{
  "source": "a melting point compilation (Tetko et al.; mined from patent text by program, amines drawn as free bases though some values may be those of a salt)",
  "data": [
    {"units": {"melting point": "°C"}, "values": [
      {"smiles": "CN(Cc1ccc(OC(C)(C)C(=O)O)cc1)c1ccc(Cl)cc1", "melting point": "63 to 65"},
      {"smiles": "COc1ncc(OC)c(NC#N)n1", "melting point": "164 to 171"},
      {"smiles": "O=C1CN(Cc2cccc(I)c2)S(=O)(=O)N1", "melting point": "101 to 103"},
      {"smiles": "CCCCN(CCCC)c1ccc(C(C#N)=c2ccc(=C(C#N)C#N)cc2)c(OC)c1", "melting point": "215 to 238"},
      {"smiles": "COc1ccc(NC(=O)c2ccc(C(C)(C)C#N)cc2)cc1", "melting point": "164 to 168"},
      {"smiles": "CCCCCCCC[C@]1(C)OO[C@@H]2C[C@H]1CC(=O)[C@@H]2C", "melting point": 27},
      {"smiles": "CCOC(=O)C1=C(C)NC(c2csc(NC(C)=O)n2)=NC1c1ccc(F)cc1Cl", "note": "(stereo not given)", "melting point": "220 to 223"},
      {"smiles": "O=C(O)COc1ccc2c(c1)CCc1sc(S(=O)(=O)CCC(c3ccccc3)c3ccccc3)nc1-2", "melting point": "175 to 177"},
      {"smiles": "OC1Cc2ccc3ccccc3c21", "note": "(stereo not given)", "melting point": "96 to 100"},
      {"smiles": "Cc1cc(F)ccc1-n1c(CF)nc2ccc([N+](=O)[O-])cc2c1=O", "melting point": "171 to 173"},
      {"smiles": "COc1ccc(NC(=O)CN2C(=O)c3ccccc3C2=O)c(OC)c1COc1cccc2ccc(C)nc12", "melting point": "229 to 231"},
      {"smiles": "NCCc1c2n(c3ccccc13)CCNCC2", "melting point": "77 to 80"},
      {"smiles": "COc1ccc2c(c1)C13CCN(C#N)C(C2)C1C(C)CC(=O)C3", "note": "(stereo not given)", "melting point": "202 to 205"},
      {"smiles": "C=CCn1cc(C(=O)O)c(=O)c2cc(F)c(N3CCNCC3)cc21", "melting point": 136},
      {"smiles": "CCN1c2ncc(COc3cccc(C(=O)O)c3)cc2C(=O)N(C)c2ccc(Cl)nc21", "melting point": "181 to 182"},
      {"smiles": "CCOC(=O)c1c(Cl)c(-c2ncc(Cl)cc2F)nn1C", "melting point": "77 to 79"},
      {"smiles": "CC(C)N(c1ccc(C#N)cc1[N+](=O)[O-])S(=O)(=O)c1ccc(Cl)cc1", "melting point": 168},
      {"smiles": "CC(C(=O)O)c1c(C(=O)c2ccccc2)[nH]c2cc(Cl)ccc12", "note": "(stereo not given)", "melting point": "193 to 196"},
      {"smiles": "CCOC(=O)c1cc2ccc(OC)cc2n1CCNC(C)=O", "melting point": "159 to 160"},
      {"smiles": "CCOc1ccc(S(=O)(=O)N(Cc2ccc(C#N)cc2)[C@@H](CC)c2ccccc2)cc1", "melting point": "97 to 98"},
      {"smiles": "COc1ccc(N2CC(CN3CCC(O)(c4ccccc4)CC3)OC2=O)cc1", "note": "(stereo not given)", "melting point": "141 to 143"},
      {"smiles": "CCOC(=O)c1cnc(-c2cc([N+](=O)[O-])ccc2OCC)[nH]c1=O", "melting point": "222 to 224"},
      {"smiles": "O=C(O)CCCCCc1nn(Cc2ccccc2)c2c1CCC2", "melting point": "94 to 95"},
      {"smiles": "CCN(C)c1cc(C)nc(Oc2c(C)cc(C)cc2C)c1C", "melting point": "173 to 174"},
      {"smiles": "CC(C)Oc1ccc(NC(=O)C2(Cl)CC2)cc1C(F)(F)F", "melting point": "106 to 108"},
      {"smiles": "CCc1nc2ccccc2c(=O)n1-c1ccccc1C", "melting point": "93 to 94"},
      {"smiles": "CCn1cc(C(=O)O)c(=O)c2cc(F)c(N3CCC(NC(C)=O)C3)nc21", "note": "(stereo not given)", "melting point": "283 to 284"},
      {"smiles": "COc1cccc2nc(-c3ccc(OCCO)c(-c4ccc(S(C)(=O)=O)cc4)n3)[nH]c(=O)c12", "melting point": "> 300"},
      {"smiles": "CCOC(=O)ON=C1Cc2ccccc2N(C(N)=O)c2ccccc21", "melting point": "189 to 190"},
      {"smiles": "NC(=O)c1c(C(=O)O)cnn1-c1ccc(Cl)c(Cl)c1", "melting point": "249 to 250"},
      {"smiles": "CC(C)N(C[C@H](O)CO)S(C)(=O)=O", "melting point": "67 to 70"},
      {"smiles": "Nc1ccc2c(c1)CC(NS(=O)(=O)c1ccc(Cl)cc1)C2", "note": "(stereo not given)", "melting point": "145 to 147"},
      {"smiles": "CCOC(=O)C(=O)Cc1ccc(C#N)cc1[N+](=O)[O-]", "melting point": 118},
      {"smiles": "FC(F)(F)c1nc(N=C(Cl)c2cccc(Cl)c2)sc1Cl", "melting point": "89 to 90"},
      {"smiles": "Cc1cc(C)cc(C(=O)N2CCC(N3CCC(=C4c5ccccc5CCn5ccnc54)CC3)CC2Cc2ccccc2)c1", "note": "(stereo not given)", "melting point": 139},
      {"smiles": "Oc1ccc(-c2nn(-c3ccccc3F)c3cc(O)ccc23)c(O)c1", "melting point": "> 205"},
      {"smiles": "[N-]=[N+]=Nc1ccc(S(=O)(=O)NCCCCCC(=O)O)cc1", "melting point": "126 to 127"},
      {"smiles": "CN(C)c1cccc(C(=O)NC2CCN(C(c3ccccc3)c3ccccc3)CC2)c1[N+](=O)[O-]", "melting point": 176},
      {"smiles": "Cc1ccc2c(c1)oc1c(C(=O)NC3C4CC5CC(C4)CC3C5)nn(-c3ccc(Cl)cc3Cl)c12", "note": "(stereo not given)", "melting point": "209 to 211"},
      {"smiles": "COC(=O)C1=Cc2cc(-c3ccc(N4CCOCC4)cc3)ccc2N(C(=O)OC)CC1", "melting point": "216 to 220"},
      {"smiles": "Cc1onc(C(C)(O)c2ccccc2)c1NC(=O)CCl", "note": "(stereo not given)", "melting point": "130 to 132"},
      {"smiles": "N=C(N)NCc1ccc(OCCC2Oc3ccccc3N(Cc3ccccc3Cl)C2=O)cc1", "note": "(stereo not given)", "melting point": "180 to 182"},
      {"smiles": "C(=C\\c1nc2ccccc2n1-c1ccccn1)/c1ccoc1", "melting point": "162 to 164"},
      {"smiles": "N#CCCN1C(=O)C(O)N=C(c2ccccc2Cl)c2cc(Cl)ccc21", "note": "(stereo not given)", "melting point": "198 to 202"},
      {"smiles": "CC(=O)OCC1OC(n2cnc3c(Cl)nc(N)nc32)C(OC(C)=O)C1OC(C)=O", "note": "(stereo not given)", "melting point": "58 to 60"},
      {"smiles": "CCOC(=O)C1CN(C(C)=O)CCC1=O", "note": "(stereo not given)", "melting point": "53 to 55"},
      {"smiles": "COCNC(=O)CNC(=O)OCc1ccccc1", "melting point": "77 to 78"},
      {"smiles": "Cc1ccc(-c2nnc3cc(-c4ccccc4)c(OCc4ncn(C)n4)nn23)cc1", "melting point": "219 to 220"},
      {"smiles": "CC1Cc2c(-n3nc(C#N)c(=O)[nH]c3=O)ccc(Cl)c2O1", "note": "(stereo not given)", "melting point": "244 to 245"},
      {"smiles": "O=C1CCC(N2Cc3c(OCc4ccc(CN5CCC(c6ccncc6)CC5)cc4)cccc3C2=O)C(=O)N1", "note": "(stereo not given)", "melting point": "198 to 200"}
    ]}
  ]
}
